IC50 data for 30 compounds are collected here from patent US9586931B2 (Merck Sharp & Dohme Corp., priority 2012, dated 2017).

Several values for one entry are separate records, joined by “and”; a condition that tells them apart may be missing. Equal values may be shown once.

The target of this assay is T1, recombinant human GST-Syk (Homo sapiens, UniProt P43405).
T1 construct: purchased Carna Biosciences 08-176
Put plainly: Homogeneous Time-Resolved Fluorescence (HTRF) assay for the recombinant human Syk enzyme. In kind it is biochemical. The settings on record: recombinant human GST-Syk 5 pM, ATP 25 μM, 10-dose titration 10 μM to 0.508 nM; read-out: rhSYK Activity IC50. The gist of the method: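 GST-hSyk fusion protein phosphorylated a peptide for 45 min at room temperature. The reaction was quenched with 2 nM Eu-anti-phosphotyrosine antibody and 70 nM SA-APC in 15 mM Tris pH 7.5, 40 mM EDTA, 0.01% Tween 20. The HTRF signal was read after 30 min.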
In general terms: Time-resolved FRET reads energy transfer from a long-lived donor to a nearby acceptor.
`Cc1cc(Nc2nccc(C(F)(F)F)n2)cc(-c2cn(C3CCCCC3O)nn2)c1` (racemic) [Example 5.57, 2-[4-(3-methyl-5-{[4-(trifluoromethyl)pyrimidin-2-yl]amino}phenyl)-1H-1,2,3-triazol-1-yl]cyclohexanol]: the IC50 (commonly the midpoint of a concentration-inhibition curve) stood at 17 nM.
Turning to `Cc1cc(Nc2cc(C(F)(F)F)ccn2)nc(-c2cn(C/C=C/c3ccncc3)nn2)c1` [Example 5.33, 4-methyl-6-{1-[(2E)-3-pyridin-4-ylprop-2-en-1-yl]-1H-1,2,3-triazol-4-yl}-N-[4-(trifluoromethyl)pyridin-2-yl]pyridin-2-amine], the IC50 stood at 58.5 nM.
Turning to `Cc1cc(Nc2nccc(C(F)(F)F)n2)cc(-n2cc(CC(O)CO)nn2)c1` (stereo not drawn) [Example 15.7, 3-[1-(3-methyl-5-{[4-(trifluoromethyl)pyrimidin-2-yl]amino}phenyl)-1H-1,2,3-triazol-4-yl]propane-1,2-diol], the IC50 was found to be 53.1 nM.
Turning to `COc1nc(Nc2cc(C)cc(-c3cn(CC(C)(O)C(C)(C)O)nn3)c2)ncc1F` (stereo not drawn) [Example 21.20, 1-(4-{3-[(5-fluoro-4-methoxypyrimidin-2-yl)amino]-5-methylphenyl}-1H-1,2,3-triazol-1-yl)-2,3-dimethylbutane-2,3-diol], the IC50 is 109 nM.
Then `Cc1cc(Nc2nccc(C(F)(F)F)n2)cc(-c2cn(C[C@H](C)CO)nn2)c1` [Example 5.72, (2S)-2-methyl-3-[4-(3-methyl-5-{[4-(trifluoromethyl)pyrimidin-2-yl]amino}phenyl)-1H-1,2,3-triazol-1-yl]propan-1-ol], with 38.1 nM.
`Cc1cc(Nc2cc(C(F)(F)F)ccn2)nc(-c2cn(C(C)C(O)CC#N)nn2)c1` (stereo not drawn) [Example 4.3, 3-hydroxy-4-[4-(4-methyl-6-{[4-(trifluoromethyl)pyridin-2-yl]amino}pyridin-2-yl)-1H-1,2,3-triazol-1-yl]pentanenitrile]: the IC50 turned out to be 4.6 nM.
`Cc1cc(Nc2cc(C(F)(F)F)ccn2)nc(-c2cn(C3CCNC(=O)CC3)nn2)c1` (racemic) [Example 11.1, 5-[4-(4-Methyl-6-{[4-(trifluoromethyl)pyridin-2-yl]amino}pyridin-2-yl)-1H-1,2,3-triazol-1-yl]azepan-2-one]: the IC50 stood at 21.2 nM.
Then `Cc1cc(Nc2cc(C(F)F)ccn2)nc(-c2cn(CC(C)(O)CC#N)nn2)c1` (single isomer, unassigned) [Example 23.1, 4-(4-(6-((4-(difluoromethyl)pyridin-2-yl)amino)-4-methylpyridin-2-yl)-1H-1,2,3-triazol-1-yl)-3-hydroxy-3-methylbutanenitrile], with 7.3 nM; and `Cc1cc(Nc2cc(C(F)(F)F)ccn2)nc(-c2cn(C(C(N)=O)c3ccc(F)cc3)nn2)c1` (stereo not drawn) [Example 1.17, 2-(4-fluorophenyl)-2-[4-(4-methyl-6-{[4-(trifluoromethyl)pyridin-2-yl]amino}pyridin-2-yl)-1H-1,2,3-triazol-1-yl]acetamide], with 4.4 nM; and `Cc1cc(Nc2nccc(C(F)(F)F)n2)cc(-c2cn(CC3(O)CCOCC3)nn2)c1` [Example 4.14, 4-{[4-(3-methyl-5-{[4-(trifluoromethyl)pyrimidin-2-yl]amino}phenyl)-1H-1,2,3-triazol-1-yl]methyl}tetrahydro-2H-pyran-4-ol], with 48.1 nM.
For `Cc1cc(Nc2cc(C(F)(F)F)ccn2)nc(-c2cn(C3CS(=O)(=O)CC3O)nn2)c1` (stereo not drawn) [Example 5.90, 4-[4-(4-methyl-6-{[4-(trifluoromethyl)pyridin-2-yl]amino}pyridin-2-yl)-1H-1,2,3-triazol-1-yl]tetrahydrothiophene-3-ol 1,1-dioxide], the IC50 is 11.5 nM.
`Cc1cc(Nc2nccc(C3CC3)n2)cc(-c2cn(CC(C)(O)C(C)(C)O)nn2)c1` (stereo not drawn) [Example 21.14, 1-(4-{3-[(4-cyclopropylpyrimidin-2-yl)amino]-5-methylphenyl}-1H-1,2,3-triazol-1-yl)-2,3-dimethylbutane-2,3-diol]: the IC50 amounted to 7.4 nM.
Then `Cc1cc(Nc2cc(C(F)(F)F)ccn2)nc(-c2cn(C3CNCC3O)nn2)c1` (racemic) [Example 19.1, (+/−)-(3S,4R)-4-(4-(4-Methyl-6-((4-(trifluoromethyl)pyridin-2-yl)amino)pyridin-2-yl)-1H-1,2,3-triazol-1-yl)pyrrolidin-3-ol], with 32.3 nM; and `Cc1cc(Nc2nccc(C(F)F)n2)cc(-c2cn(CC3CNC(=O)O3)nn2)c1` (single isomer, unassigned) [Example 7.4, 5-((4-(3-((4-(difluoromethyl)pyrimidin-2-yl)amino)-5-methylphenyl)-1H-1,2,3-triazol-1-yl)methyl)oxazolidin-2-one], with 1.8 nM.
In the case of `Cc1cc(Nc2cc(C(F)(F)F)ccn2)nc(-c2cn(CC3(O)CCOCC3)nn2)c1` [Example 4.13, 4-{[4-(4-methyl-6-{[4-(trifluoromethyl)pyridin-2-yl]amino}pyridin-2-yl)-1H-1,2,3-triazol-1-yl]methyl}tetrahydro-2H-pyran-4-ol], the half-maximal inhibitory concentration (IC50) was 25.6 nM.
Take `CCOC(=O)C(C)(C)Cc1cn(-c2cc(C)cc(Nc3nccc(C(F)(F)F)n3)c2)nn1` [Example 15.15, ethyl 2,2-dimethyl-3-[1-(3-methyl-5-{[4-(trifluoromethyl)pyrimidin-2-yl]amino}phenyl)-1H-1,2,3-triazol-4-yl]propanoate]: the IC50 came to 255 nM.
Regarding `Cc1cc(Nc2cc(C(F)(F)F)ccn2)nc(-c2cn(C(C)C(=O)NCC(c3ccc(C(F)(F)F)cc3)N3CCOCC3)nn2)c1` (stereo not drawn) [Example 1.52, 2-[4-(4-methyl-6-{[4-(trifluoromethyl)pyridin-2-yl]amino}pyridin-2-yl)-1H-1,2,3-triazol-1-yl]-N-{2-morpholin-4-yl-2-[4-(trifluoromethyl)phenyl]ethyl}propanamide], the IC50 stood at 435 nM.
As for `Cc1cc(Nc2nccc(C(F)F)n2)cc(-c2cn(CC(C)(O)CC#N)nn2)c1` (single isomer, unassigned) [Example 27.2, 4-(4-(3-((4-(Difluoromethyl)pyrimidin-2-yl)amino)-5-methylphenyl)-1H-1,2,3-triazol-1-yl)-3-hydroxy-3-methylbutanenitrile], the IC50 came out at 21.1 nM.
With `Cc1cc(Nc2cc(C(F)(F)F)ccn2)nc(-c2cn(CC(O)c3ccc(C(N)=O)cc3)nn2)c1` (stereo not drawn) [Example 1.10, 4-{1-hydroxy-2-[4-(4-methyl-6-{[4-(trifluoromethyl)pyridin-2-yl]amino}pyridin-2-yl)-1H-1,2,3-triazol-1-yl]ethyl}benzamide], the IC50 was 6.3 nM.
Then `Cc1cc(Nc2cc(C(F)(F)F)ccn2)nc(-c2cn(C[C@H](O)CO)nn2)c1` [Example 5.7, (2S)-3-[4-(4-methyl-6-{[4-(trifluoromethyl)pyridin-2-yl]amino}pyridin-2-yl)-1H-1,2,3-triazol-1-yl]propane-1,2-diol], with 7.3 nM and 3.4 nM; and `Cc1cc(Nc2cc(C(F)(F)F)ccn2)nc(-c2cn(CCCO)nn2)c1` [Example 5.94, 3-[4-(4-methyl-6-{[4-(trifluoromethyl)pyridin-2-yl]amino}pyridin-2-yl)-1H-1,2,3-triazol-1-yl]propan-1-ol], with 474 nM.
Then `CCC(O)(CC)Cn1cc(-c2cc(C)cc(Nc3cc(C(F)(F)F)ccn3)n2)nn1` [Example 4.31, 3-{[4-(4-methyl-6-{[4-(trifluoromethyl)pyridin-2-yl]amino}pyridin-2-yl)-1H-1,2,3-triazol-1-yl]methyl}pentan-3-ol], with 8.1 nM.
Turning to `Cc1cc(Nc2nccc(C(F)(F)F)n2)cc(-c2cn(C(C)C(=O)O)nn2)c1` (racemic) [Example 5.64, 2-[4-(3-methyl-5-{[4-(trifluoromethyl)pyrimidin-2-yl]amino}phenyl)-1H-1,2,3-triazol-1-yl]propanoic acid], the IC50 was determined as 41.4 nM.
Turning to `COC(=O)C(C)n1cc(-c2cc(C)cc(Nc3cc(C(F)(F)F)ccn3)n2)nn1` (stereo not drawn) [Example 5.20, methyl 2-[4-(4-methyl-6-{[4-(trifluoromethyl)pyridin-2-yl]amino}pyridin-2-yl)-1H-1,2,3-thiazol-1-yl]propanoate], the IC50 turned out to be 24.1 nM.
Regarding `Cc1cc(Nc2nccc(C(F)(F)F)n2)cc(-c2cn(CC(=O)N3COCC3(C)C)nn2)c1` [Example 5.68, N-(3-{1-[2-(4,4-dimethyl-1,3-oxazolidin-3-yl)-2-oxoethyl]-1H-1,2,3-triazol-4-yl}-5-methylphenyl)-4-(trifluoromethyl)pyrimidin-2-amine], the half-inhibitory concentration (IC50) turned out to be 114 nM.
Turning to `COC(=O)c1ccc(C(O)Cn2cc(-c3cc(C)cc(Nc4cc(C(F)(F)F)ccn4)n3)nn2)cc1` (stereo not drawn) [Example 4.17, methyl 4-{1-hydroxy-2-[4-(4-methyl-6-{[4-(trifluoromethyl)pyridin-2-yl]amino}pyridin-2-yl)-1H-1,2,3-triazol-1-yl]ethyl}benzoate], the IC50 came to 26.6 nM.
For `COC(=O)C(C)CCn1cc(-c2cc(C)cc(Nc3cc(C(F)(F)F)ccn3)n2)nn1` (racemic) [Example 5.85, methyl 2-methyl-4-[4-(4-methyl-6-{[4-(trifluoromethyl)pyridin-2-yl]amino}pyridin-2-yl)-1H-1,2,3-triazol-1-yl]butanoate] the value was 80 nM; for `Cc1cc(Nc2cc(F)ccn2)nc(-c2cn(C(C)c3ccc(C(=O)O)cc3)nn2)c1` (stereo not drawn) [Example 2.2, 4-[1-(4-{6-[(4-fluoropyridin-2-yl)amino]-4-methylpyridin-2-yl}-1H-1,2,3-triazol-1-yl)ethyl]benzoic acid], 8.88 nM; for `Cc1cc(Nc2cc(C(F)(F)F)ccn2)nc(-c2cn(C[C@H](O)CC(N)=O)nn2)c1` [Example 12.1], 14.8 nM.
For `Cc1cc(Nc2nccc(C(F)(F)F)n2)cc(-c2cn(Cc3ccc(C(=O)O)cc3)nn2)c1` [Example 5.21, 4-{[4-(3-methyl-5-{[4-(trifluoromethyl)pyrimidin-2-yl]amino}phenyl)-1H-1,2,3-triazol-1-yl]methyl}benzoic acid] the value was 3.3 nM.
